Experimental data from article PMC7982595 (Frontiers in Pharmacology, 2021).
Where a name gives a salt, the structure may show the parent alone. Read-outs that look alike come from different tables or passages of the source.

Experiments:
[1] = Determination of solubility in different solvents (shaken 24 h, HPLC); type: physicochemical; details: 25 °C, thermodynamic from solid, mean ± SD
Method: Then they were shaken for 24 h with 100 rpm at 25°C. At last, the supernatant was directly injected into HPLC after high speed centrifugation (3,000 rpm for 10 min).

[2] = In vivo drug release / pharmacokinetics, plasma galantamine by HPLC-ESI-MS/MS; design: species or system Sprague-Dawley (SD) rats; AUC0-t / AUC0-∞: unit not given here; details: 24 mg/kg
Method: Healthy Sprague-Dawley (SD) rats weighing 200–210 g were supplied by the Experimental Animal Breeding Center of Jinan Pengyue Co., Ltd. (Jinan, China). Before the drug administration, all rats were fasted for 12 h. But they were free access to diet and water throughout the study ([Zhang et al., 2019]). This study conformed to the Guide for the Care and Use of Laboratory Animals.
The study groups were carried out with twelve rats, which were randomly divided into two groups each with six rats. […] The blood samples of both groups were obtained via the orbital venous plexus and collected into heparinized tubes before and after dosing at 1 h, 3 h, 6 h, 12 h, 1 day, 2 days, 3 days, 4 days, 6 days, 8 days, 10 days, 12 days, […], 16 days, 18 days, 20 days. Other eighteen rats were randomly divided into the placebo group, negative group and oral administration group of six rats each. The placebo group received […] microspheres suspension in diluent at a single dose of 20 mg/kg by i.m., and the blood samples of this group were obtained the same as group I. The negative group was also carried out without any treatment, and the blood samples of this group were obtained the same as group I. The oral administration group was performed with GLT-PM (24 mg/kg), which was infused to stomach of rats. The blood samples of oral administration group were obtained before and after dosing at 15 min, 30 min, 45 min, 1 h, 1.5 h, 2 h, 3 h, 4 h, 6 h, 8 h, 12 h, 24 h, 48 h, 72 h. All blood samples were centrifuged immediately at 4,500 rpm for 10 min, and the plasma samples were separated into EP tubes and stored at −80°C until analysis ([Jiang et al., 2014]; [Zhang et al., 2019]).
After thawing at room temperature, 50 μL plasma samples were separately added into a […] centrifuge tube with the addition of 150 μL of acetonitrile. This mixture was vortex mixed for 1 min and centrifuged at 12700 rpm for 10 min. Then 100 μL supernate was mixed with 100 μL deionized water, and they was injected into vials for analysis ([Zhang et al., 2019]).
AB Sciex QTrap 6,500 + triple-quadrupole tandem mass spectrometer (Applied Biosystem Inc., Foster City, Calif, United States) was connected to Waters Acquity UPLC H-Class HPLC system (Waters Inc., Milford, Massachusetts, United States) via electro-spray ionization (ESI) interface. LC separation was performed on a Waters BEH C8 column (2.1 × 50 mm I.D., 1.7 μm) with mobile phase A (1 mmol/L ammonium acetate solution) and phase B (mixture of acetonitrile and methanol, 4:1, v/v) at 40°C, which was used with gradient elution as shown in Table 2 ([Suresha et al., 2014]). Quantitative analyses were performed in positive ion mode on a 6500 Q-trap mass analyzer (AB Sciex, Framingham, MA) coupled with electrospray ion source. Multiple reaction monitoring (MRM) mode was used for the quantification with ion spray voltage set at 5500 V, curtain gas 35 psi, […], and the interface heater temperature 450°C. […]
The plasma concentration-time data were analyzed with non-compartmental model by Phoenix WinNonlin 8.1 software (Pharsight Corporation, United States) to obtain the pharmacokinetic parameters, which included the area under the plasma concentration-time curve (AUC), half-life (T1/2) and mean residence time (MRT). The maximum plasma drug concentration (Cmax) and the time required to reach Cmax (Tmax) were directly read from the plasma concentration-time data.

[3] = 25°C; ref Marco-Contelles et al., 2005; Saigal et al., 2013; cited from earlier work
[4] = n = 3, read-out: Solubility, benzyl alcohol
[5] = n = 3, read-out: Solubility, deionized water
[6] = n = 3, read-out: Solubility, dichloromethane
[7] = n = 3, read-out: Solubility, methanol
[8] = Oral administration: rats, plasma galantamine
[9] = Sprague-Dawley, rat, plasma, po

| SMILES | solubility at 24 h [1, 4] | solubility at 24 h [1, 5] | solubility at 24 h [1, 6] | solubility at 24 h [1, 7] | AUC0-t [2, 8] | AUC0-∞ [2, 8] | Cmax [2, 9] | Tmax [2, 9] | half-life [2, 9] | Solubility [3] |
| --- | --- | --- | --- | --- | --- | --- | --- | --- | --- | --- |
| COc1ccc2c3c1O[C@H]1C[C@@H](O)C=C[C@@]31CCN(C)C2.COc1ccc2c3c1O[C@H]1C[C@@H](O)C=C[C@@]31CCN(C)C2.O=C(O)c1cc2ccccc2c(Cc2c(O)c(C(=O)O)cc3ccccc23)c1O [GLT-PM, galantamine pamoate] | 357300 ± 210 µg/mL | 200 ± 20 µg/mL | 8720 ± 520 µg/mL | 1010 ± 210 µg/mL | 532.54 ± 73.08 | 532.91 ± 72.92 | 119 ± 44.6 ng/mL | 0.96 h | 4.32 h |  |
| COc1ccc2c3c1O[C@H]1C[C@@H](O)C=C[C@@]31CCN(C)C2 [Galantamine hydrobromide, reference compound] | 1570 ± 190 µg/mL | 4320 ± 370 µg/mL | 320 ± 30 µg/mL | 820 ± 90 µg/mL |  |  |  |  |  | 5170 µg/mL |
